Numbered stars: 1 amine (or outer) side, 2 acyl side, 3 side chain; on linkers, the order of the positions; unused ones are H or OH. Bridge positions count the residues as written; N and C are the ends. Square brackets hold non-standard residues; d marks the D form. Peptide text beside a SMILES is read from it. * marks the point of attachment. Bip(4'-COOH) = N[C@@H](Cc1ccc(-c2ccc(C(=O)O)cc2)cc1)C(=O)O; Bip(4'-NHAc) = CC(=O)Nc1ccc(-c2ccc(C[C@H](N)C(=O)O)cc2)cc1; X24 = COc1ccccc1-c1cn(C[C@H](N[*:1])C(=O)[*:2])nn1; Phe(3-CF3) = N[C@@H](Cc1cccc(C(F)(F)F)c1)C(=O)O; Ala(morpholin-4-yl) = N[C@@H](CN1CCOCC1)C(=O)O; Phe(4-COOH) = N[C@@H](Cc1ccc(C(=O)O)cc1)C(=O)O; Bip = N[C@@H](Cc1ccc(-c2ccccc2)cc1)C(=O)O; Phe(3-Me) = Cc1cccc(C[C@H](N)C(=O)O)c1; Ala(cPr) = N[C@@H](CC1CC1)C(=O)O; hCha = N[C@@H](CCC1CCCCC1)C(=O)O; 2Pal = N[C@@H](Cc1ccccn1)C(=O)O; Cha = N[C@@H](CC1CCCCC1)C(=O)O; Carboxymethyl = O=C(O)C*; NMeA = CN[C@@H](C)C(=O)O; Orn = NCCC[C@H](N)C(=O)O; Dab = NCC[C@H](N)C(=O)O
Molecular target: T1, Alexa fluor-647 labeled human PD-L1-Ig binding to Jurkat cell line over-expressing human PD-1 (Homo sapiens, UniProt Q15116)
T1 construct: expressed in transfected cells; host or cells: Jurkat
T1 sequence (Q15116 25-288): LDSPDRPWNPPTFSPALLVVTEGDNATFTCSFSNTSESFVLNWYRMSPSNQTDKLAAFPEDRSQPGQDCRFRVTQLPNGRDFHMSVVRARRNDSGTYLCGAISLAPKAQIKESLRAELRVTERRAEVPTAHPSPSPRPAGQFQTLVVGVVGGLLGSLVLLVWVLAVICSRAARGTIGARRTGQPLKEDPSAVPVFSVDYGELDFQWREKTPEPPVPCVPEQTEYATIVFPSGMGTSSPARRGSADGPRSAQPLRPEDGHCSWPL
Test: Jurkat-PD-1 Cell Binding High-Content Screening Assay (CBA): Method 3 (Alexa fluor-647 labeled PD-L1-Ig)
Settings: Jurkat-PD-1 cells, Alexa fluor-647 labeled PD-L1-Ig 177 nM; head μM; read-out: CBA Method 3 μM
How it was run: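 Jurkat cells over-expressing human PD-1 in RPMI/10% FCS were preincubated 2 h at 37 °C with compound, then exposed 1 h to Alexa fluor-647 labeled human PD-L1-Ig (177 nM final). Cells fixed in 4% paraformaldehyde with Hoechst 33342 and binding quantified by high-content imaging.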

SMILES | IC50 [µM]
Cc1cccc(C[C@@H]2NC(=O)[C@H](CC(=O)O)NC(=O)[C@H](Cc3ccc(OCC(=O)O)cc3)NC(=O)[C@H](CC3CCCCC3)NC(=O)CSC[C@@H](C(=O)N[C@@H](CCN)C(N)=O)NC(=O)[C@H](CCCN)NC(=O)[C@H](C(C)C)NC(=O)[C@H](CN3CCOCC3)NC(=O)[C@H](CCN)NC(=O)[C@@H](CC(C)C)NC(=O)[C@H](C)N(C)C(=O)[C@H](CCC(N)=O)NC(=O)[C@H](Cc3ccc(-c4ccccc4)cc3)NC(=O)[C@H](Cc3ccc(C(=O)O)cc3)NC2=O)c1 [Example 5191] ({CH2CO}-[Cha]Y(Carboxymethyl)D[Phe(3-Me)][Phe(4-COOH)][Bip]Q[NMeA][dL][Dab][Ala(morpholin-4-yl)]V[Orn]C[Dab]-NH2; thioether N-14) | 0.12
Cc1cccc(C[C@@H]2NC(=O)[C@H](CC(=O)O)NC(=O)[C@H](Cc3ccc(OCC(=O)O)cc3)NC(=O)[C@H](CC3CCCCC3)NC(=O)CSC[C@@H](C(=O)N[C@@H](CCN)C(N)=O)NC(=O)[C@H](CCCN)NC(=O)[C@H](C(C)C)NC(=O)[C@H](CCC3CCCCC3)NC(=O)[C@H](CCN)NC(=O)[C@@H](CC(C)C)NC(=O)[C@H](C)N(C)C(=O)[C@H](CCC(N)=O)NC(=O)[C@H](Cc3ccc(-c4ccccc4)cc3)NC(=O)[C@H](Cc3ccc(C(=O)O)cc3)NC2=O)c1 [Example 5193] ({CH2CO}-[Cha]Y(Carboxymethyl)D[Phe(3-Me)][Phe(4-COOH)][Bip]Q[NMeA][dL][Dab][hCha]V[Orn]C[Dab]-NH2; thioether N-14) | 0.38
COc1ccccc1-c1cn(C[C@@H]2NC(=O)[C@H](Cc3ccc(C(=O)O)cc3)NC(=O)[C@H](Cc3cccc(C(F)(F)F)c3)NC(=O)[C@H](CC(=O)O)NC(=O)[C@H](Cc3ccc(C(=O)O)cc3)NC(=O)[C@H](CN3CCOCC3)NC(=O)CSC[C@@H](C(=O)N[C@@H](CCN)C(N)=O)NC(=O)[C@H](CCC(=O)O)NC(=O)[C@H](C(C)C)NC(=O)[C@H](CC3CCCCC3)NC(=O)[C@H](CCN)NC(=O)[C@@H](CC(C)C)NC(=O)[C@H](C)N(C)C(=O)[C@H](Cc3ccc(C(=O)O)cc3)NC2=O)nn1 [Example 5197] ({CH2CO}-[Ala(morpholin-4-yl)][Phe(4-COOH)]D[Phe(3-CF3)][Phe(4-COOH)][X24][Phe(4-COOH)][NMeA][dL][Dab][Cha]VEC[Dab]-NH2; thioether N-14) | 0.45
Cc1cccc(C[C@@H]2NC(=O)[C@H](CC(=O)O)NC(=O)[C@H](Cc3ccc(C(=O)O)cc3)NC(=O)[C@H](CC3CCCCC3)NC(=O)CSC[C@@H](C(=O)N[C@@H](CCN)C(N)=O)NC(=O)[C@H](CCC(=O)O)NC(=O)[C@H](C(C)C)NC(=O)[C@H](CC3CCCCC3)NC(=O)[C@H](CCN)NC(=O)[C@@H](CC(C)C)NC(=O)[C@H](C)N(C)C(=O)[C@H](Cc3ccc(C(=O)O)cc3)NC(=O)[C@H](Cc3ccc(-c4ccccc4)cc3)NC(=O)[C@H](Cc3ccc(-c4ccc(C(=O)O)cc4)cc3)NC2=O)c1 [Example 5198] ({CH2CO}-[Cha][Phe(4-COOH)]D[Phe(3-Me)][Bip(4'-COOH)][Bip][Phe(4-COOH)][NMeA][dL][Dab][Cha]VEC[Dab]-NH2; thioether N-14) | 0.01

Second part, the compound after the results:

IC50 [µM] | SMILES
0.15 | Cc1cccc(C[C@@H]2NC(=O)[C@H](CC(=O)O)NC(=O)[C@H](Cc3ccc(OCC(=O)O)cc3)NC(=O)[C@H](CC3CCCCC3)NC(=O)CSC[C@@H](C(=O)N[C@@H](CCN)C(N)=O)NC(=O)[C@H](CCCN)NC(=O)[C@H](C(C)C)NC(=O)[C@H](CC3CC3)NC(=O)[C@H](CCN)NC(=O)[C@@H](CC(C)C)NC(=O)[C@H](C)N(C)C(=O)[C@H](CCC(N)=O)NC(=O)[C@H](Cc3ccc(-c4ccccc4)cc3)NC(=O)[C@H](Cc3ccc(C(=O)O)cc3)NC2=O)c1 [Example 5192] ({CH2CO}-[Cha]Y(Carboxymethyl)D[Phe(3-Me)][Phe(4-COOH)][Bip]Q[NMeA][dL][Dab][Ala(cPr)]V[Orn]C[Dab]-NH2; thioether N-14)
0.04 | Cc1cccc(C[C@@H]2NC(=O)[C@H](CC(=O)O)NC(=O)[C@H](Cc3ccc(OCC(=O)O)cc3)NC(=O)[C@H](CC3CCCCC3)NC(=O)CSC[C@@H](C(=O)N[C@@H](CCN)C(N)=O)NC(=O)[C@H](CCCN)NC(=O)[C@H](C(C)C)NC(=O)[C@H](Cc3ccccn3)NC(=O)[C@H](CCN)NC(=O)[C@@H](CC(C)C)NC(=O)[C@H](C)N(C)C(=O)[C@H](CCC(N)=O)NC(=O)[C@H](Cc3ccc(-c4ccccc4)cc3)NC(=O)[C@H](Cc3ccc(C(=O)O)cc3)NC2=O)c1 [Example 5194] ({CH2CO}-[Cha]Y(Carboxymethyl)D[Phe(3-Me)][Phe(4-COOH)][Bip]Q[NMeA][dL][Dab][2Pal]V[Orn]C[Dab]-NH2; thioether N-14)
0.01 | CC(=O)Nc1ccc(-c2ccc(C[C@@H]3NC(=O)[C@H](Cc4cccc(C)c4)NC(=O)[C@H](CC(=O)O)NC(=O)[C@H](Cc4ccc(C(=O)O)cc4)NC(=O)[C@H](CC4CCCCC4)NC(=O)CSC[C@@H](C(=O)N[C@@H](CCN)C(N)=O)NC(=O)[C@H](CCC(=O)O)NC(=O)[C@H](C(C)C)NC(=O)[C@H](CC4CCCCC4)NC(=O)[C@H](CCN)NC(=O)[C@@H](CC(C)C)NC(=O)[C@H](C)N(C)C(=O)[C@H](Cc4ccc(C(=O)O)cc4)NC(=O)[C@H](Cc4ccc(-c5ccccc5)cc4)NC3=O)cc2)cc1 [Example 5199] ({CH2CO}-[Cha][Phe(4-COOH)]D[Phe(3-Me)][Bip(4'-NHAc)][Bip][Phe(4-COOH)][NMeA][dL][Dab][Cha]VEC[Dab]-NH2; thioether N-14)
0.02 | CC(=O)Nc1ccc(-c2ccc(C[C@@H]3NC(=O)[C@H](Cc4cccc(C)c4)NC(=O)[C@H](CC(=O)O)NC(=O)[C@H](Cc4ccc(C(=O)O)cc4)NC(=O)[C@H](CC4CCCCC4)NC(=O)CSC[C@@H](C(=O)N[C@@H](CCN)C(N)=O)NC(=O)[C@H](CCC(N)=O)NC(=O)[C@H](C(C)C)NC(=O)[C@H](CC4CCCCC4)NC(=O)[C@H](CCN)NC(=O)[C@@H](CC(C)C)NC(=O)[C@H](C)N(C)C(=O)[C@H](Cc4ccc(C(=O)O)cc4)NC(=O)[C@H](Cc4ccc(-c5ccccc5)cc4)NC3=O)cc2)cc1 [Example 5200] ({CH2CO}-[Cha][Phe(4-COOH)]D[Phe(3-Me)][Bip(4'-NHAc)][Bip][Phe(4-COOH)][NMeA][dL][Dab][Cha]VQC[Dab]-NH2; thioether N-14)
0.01 | CC(=O)Nc1ccc(-c2ccc(C[C@@H]3NC(=O)[C@H](Cc4cccc(C)c4)NC(=O)[C@H](CC(=O)O)NC(=O)[C@H](Cc4ccc(C(=O)O)cc4)NC(=O)[C@H](CC4CCCCC4)NC(=O)CSC[C@@H](C(=O)N[C@@H](CCN)C(N)=O)NC(=O)[C@H](CCC(=O)O)NC(=O)[C@H](C(C)C)NC(=O)[C@H](CC4CCCCC4)NC(=O)[C@H](CCN)NC(=O)[C@@H](CC(C)C)NC(=O)[C@H](C)N(C)C(=O)[C@H](CCC(N)=O)NC(=O)[C@H](Cc4ccc(-c5ccccc5)cc4)NC3=O)cc2)cc1 [Example 5203] ({CH2CO}-[Cha][Phe(4-COOH)]D[Phe(3-Me)][Bip(4'-NHAc)][Bip]Q[NMeA][dL][Dab][Cha]VEC[Dab]-NH2; thioether N-14)

Same assay, conditions: Jurkat-PD-1 cells, Alexa fluor-647 labeled PD-L1-Ig 177 nM; nM; read-out: CBA Method 3

SMILES | IC50 [µM]
CC(C)C[C@H]1NC(=O)[C@H](C)N(C)C(=O)[C@H](Cc2ccc(C(=O)O)cc2)NC(=O)[C@H](Cc2ccc(-c3ccccc3)cc2)NC(=O)[C@H](Cc2ccc(C(=O)O)cc2)NC(=O)[C@H](Cc2cccc(C(F)(F)F)c2)NC(=O)[C@H](CC(=O)O)NC(=O)[C@H](Cc2ccc(C(=O)O)cc2)NC(=O)[C@H](CC2CCCCC2)NC(=O)CSC[C@@H](C(=O)N[C@@H](CCN)C(N)=O)NC(=O)[C@H](CCC(=O)O)NC(=O)[C@H](C(C)C)NC(=O)[C@H](CC2CCCCC2)NC(=O)[C@H](CCN)NC1=O [Example 5195] ({CH2CO}-[Cha][Phe(4-COOH)]D[Phe(3-CF3)][Phe(4-COOH)][Bip][Phe(4-COOH)][NMeA][dL][Dab][Cha]VEC[Dab]-NH2; thioether N-14) | 0.0017
CC(=O)Nc1ccc(-c2ccc(C[C@@H]3NC(=O)[C@H](Cc4cccc(C)c4)NC(=O)[C@H](CC(=O)O)NC(=O)[C@H](Cc4ccc(C(=O)O)cc4)NC(=O)[C@H](CC4CCCCC4)NC(=O)CSC[C@@H](C(=O)N[C@@H](CCN)C(N)=O)NC(=O)[C@H](CCC(=O)O)NC(=O)[C@H](C(C)C)NC(=O)[C@H](CC4CCCCC4)NC(=O)[C@H](CCN)NC(=O)[C@@H](CC(C)C)NC(=O)[C@H](C)N(C)C(=O)[C@H](Cc4ccc(OCC(=O)O)cc4)NC(=O)[C@H](Cc4ccc(-c5ccccc5)cc4)NC3=O)cc2)cc1 [Example 5202] ({CH2CO}-[Cha][Phe(4-COOH)]D[Phe(3-Me)][Bip(4'-NHAc)][Bip]Y(Carboxymethyl)[NMeA][dL][Dab][Cha]VEC[Dab]-NH2; thioether N-14) | 0.0049

Second part, the compound after the results:

IC50 [µM] | SMILES
0.0072 | Cc1cccc(C[C@@H]2NC(=O)[C@H](CC(=O)O)NC(=O)[C@H](Cc3ccc(C(=O)O)cc3)NC(=O)[C@H](CC3CCCCC3)NC(=O)CSC[C@@H](C(=O)N[C@@H](CCN)C(N)=O)NC(=O)[C@H](CCC(=O)O)NC(=O)[C@H](C(C)C)NC(=O)[C@H](CC3CCCCC3)NC(=O)[C@H](CCN)NC(=O)[C@@H](CC(C)C)NC(=O)[C@H](C)N(C)C(=O)[C@H](Cc3ccc(C(=O)O)cc3)NC(=O)[C@H](Cc3ccc(-c4ccccc4)cc3)NC(=O)[C@H](Cc3ccc(C(=O)O)cc3)NC2=O)c1 [Example 5196] ({CH2CO}-[Cha][Phe(4-COOH)]D[Phe(3-Me)][Phe(4-COOH)][Bip][Phe(4-COOH)][NMeA][dL][Dab][Cha]VEC[Dab]-NH2; thioether N-14)
0.0062 | Cc1cccc(C[C@@H]2NC(=O)[C@H](CC(=O)O)NC(=O)[C@H](Cc3ccc(C(=O)O)cc3)NC(=O)[C@H](CC3CCCCC3)NC(=O)CSC[C@@H](C(=O)N[C@@H](CCN)C(N)=O)NC(=O)[C@H](CCC(=O)O)NC(=O)[C@H](C(C)C)NC(=O)[C@H](CC3CCCCC3)NC(=O)[C@H](CCN)NC(=O)[C@@H](CC(C)C)NC(=O)[C@H](C)N(C)C(=O)[C@H](Cc3ccc(C(=O)O)cc3)NC(=O)[C@H](Cc3ccc(-c4ccccc4)cc3)NC(=O)[C@H](Cc3ccc(OCC(=O)O)cc3)NC2=O)c1 [Example 5201] ({CH2CO}-[Cha][Phe(4-COOH)]D[Phe(3-Me)]Y(Carboxymethyl)[Bip][Phe(4-COOH)][NMeA][dL][Dab][Cha]VEC[Dab]-NH2; thioether N-14)

Source: patent publication US20240409585A1, “MACROCYCLIC IMMUNOMODULATORS” (priority 2021, published 2024)
